In US8604030B2, “Fused piperidine compound and pharmaceutical containing same” (Kowa Company, Ltd., priority 2009, dated 2013):

Legend:
[1] = tested on: Human hepatocellular carcinoma cell line HepG2; assay: EPO production in HepG2 culture supernatant (ELISA), 48 hours at 4% oxygen; assay type: cell-based; settings: oxygen concentration 4%, 100% = EPO produced in non-stimulated state without compound; for activity at 3 µM: test compound 3 μM, read-out: % of Control (3 μM), produced amount of EPO; for activity at 10 µM: test compound 10 μM, read-out: % of Control (10 μM), produced amount of EPO
Procedure: Human hepatocellular carcinoma cell line HepG2 was inoculated in aliquots of 5×10^4 cells each into each of the wells of a 48-well plate using minimum essential medium (MEM, Sigma) containing 10% fetal bovine serum. On the following day, the medium was replaced with Dulbecco's Modified Eagle Medium (DMEM, Sigma) not containing phenol red but containing 10% fetal bovine serum followed by the addition of a test compound dissolved in DMSO to a final concentration of 3 μM or 10 and bringing to a final media volume of 400 μl per well. After incubating for 48 hours in a CO2 incubator having an oxygen concentration of 4%, the culture supernatant was recovered. The concentration of EPO in the culture supernatant was measured immediately using an ELISA kit (Roche Diagnostics). The procedure used complied with that described in the instructions.
The produced amount of EPO derived from each compound was determined based on a value of 100% for the amount of EPO produced in a non-stimulated state in the absence of addition of a compound (% of control).

[2] = tested on: Human proerythroblast cell line K562; assay: Hemoglobin production in K562 cells (porphyrin ring fluorescence); assay type: cell-based; settings: 72 h, test compound 6 μM, 3 days + 3 days after medium replacement, 3×10^5 cells, 100% = hemoglobin produced in non-stimulated state without compound, read-out: % of Control (6 μM), amount of hemoglobin produced
Procedure: Human proerythroblast cell line K562 (acquired from ATCC) was inoculated in aliquots of 1×10^5 cells/mL into each of the wells of a 24-well plate using complete medium (RPMI-1640 medium containing 10% fetal bovine serum), followed by the addition of the test compounds at a final concentration of 6 μM and incubating for 3 days in a CO2 incubator (37° C., 5% CO2). Culturing was continued for an additional 3 days after replacing the medium. The cells were then collected and counted followed by unifying to a cell count of 3×10^5 cells and determining the amount of hemoglobin produced in the cells by measuring the fluorescence of the porphyrin ring. Namely, the cells collected by centrifugation were suspended in 500 μL of 2 M oxalic acid, and boiled for 30 minutes and allowed to cool, followed by measuring fluorescence intensity with a fluorescent microplate reader (Spectra MAX Gemini EM, MDC Japan, Inc.) ([…]). The amount of hemoglobin induced to be produced by each compound was determined based on a value of 100% for the amount of hemoglobin produced in a non-stimulated state in the absence of addition of a compound (% of control).

## CC(=O)N1c2ncccc2[C@H](Nc2ccc(Cl)cc2)C[C@@H]1C (relative stereo) [Compound 1, cis-1-acetyl-4-[(4-chlorophenyl)amino]-2-methyl-3,4-dihydro-2H-[1,8]-naphthyridine]
[1]
  activity at 3 µM: 416%
[2]
  activity at 6 µM: 197%

## CC(=O)N1c2ccncc2[C@H](Nc2ccc(Cl)cc2)C[C@@H]1C (relative stereo) [Compound 2, cis-1-acetyl-4-[(4-chlorophenyl)amino]-2-methyl-3,4-dihydro-2H-[1,6]-naphthyridine]
[1]
  activity at 3 µM: 392%
[2]
  activity at 6 µM: 249%

## CC(=O)N1c2cccnc2[C@H](Nc2ccc(Cl)cc2)C[C@@H]1C (relative stereo) [Compound 3, cis-1-acetyl-4-[(4-chlorophenyl)amino]-2-methyl-3,4-dihydro-2H-[1,5]-naphthyridine]
[1]
  activity at 3 µM: 153%
[2]
  activity at 6 µM: 105%

## CC(=O)N1c2c(ccc3ccccc23)[C@H](Nc2ccc(Cl)cc2)C[C@@H]1C (relative stereo) [Compound 5, cis-1-acetyl-4-[(4-chlorophenyl)amino]-2-methyl-1,2,3,4-tetrahydro-benzo[h]quinoline]
[1]
  activity at 10 µM: 183%

## CC(=O)N1c2ccc3[nH]ccc3c2[C@H](Nc2ccc(Cl)cc2)C[C@@H]1C (relative stereo) [Compound 7, cis-6-acetyl-9-(4-chlorophenylamino)-7-methyl-6,7,8,9-tetrahydro-3H-pyrrolo[3,2-f]quinoline]
[1]
  activity at 10 µM: 137%
[2]
  activity at 6 µM: 436%

## CC(=O)N1c2ccc3oc(=O)ccc3c2[C@H](Nc2ccc(Cl)cc2)C[C@@H]1C (relative stereo) [Compound 9, cis-7-acetyl-10-(4-chlorophenylamino)-8-methyl-7,8,9,10-tetrahydro-3H-pyrano[3,2-f]-quinolin-3-one]
[1]
  activity at 10 µM: 116%
[2]
  activity at 6 µM: 166%

## CC(=O)N1c2cc3c(cc2[C@H](Nc2ccc(Cl)cc2)C[C@@H]1C)OCO3 (relative stereo) [Compound 10, cis-1-[8-(4-chlorophenylamino)-6-methyl-7,8-dihydro-[1,3]dioxolo[4,5-g]quinolin-5(6H)-yl]ethanone]
[1]
  activity at 10 µM: 191%
[2]
  activity at 6 µM: 520%

## CC(=O)N1c2ccsc2C(Nc2ccc(Cl)cc2)CC1C (centres unmarked) [Compound 4, 1-(7-(4-chlorophenylamino)-5-methyl-6,7-dihydrothieno[3,2-b]pyridine-4(5H)-yl)ethanone]
[1]
  activity at 3 µM: 137%
[2]
  activity at 6 µM: 135%

## CC(=O)N1c2ccc3[nH]cnc3c2C(Nc2ccc(Cl)cc2)CC1C (stereo not drawn) [Compound 8, Cis-1-acetyl-9-[(4-chlorophenyl)amino]-7-methyl-6,7,8,9-tetrahydro-1H-imiazo[4,5-f]quinoline]
[1]
  activity at 10 µM: 104%
[2]
  activity at 6 µM: 185%

## CC(=O)N1c2cc3c(cc2C(Nc2ccc(Cl)cc2)CC1C)OCCO3 (centres unmarked) [Compound 11, 6-acetyl-9-[(4-chlorophenyl)amino]-7-methyl-2,3,6,7,8,9-hexahydro-[1,4]dioxano[2,3-g]quinoline]
[1]
  activity at 10 µM: 190%
[2]
  activity at 6 µM: 302%

## CC(=O)N1c2cc3c(cc2C(Nc2ccc(Cl)cc2)CC1C)OCC(=O)N3 (stereo not drawn) [Compound 12, cis-6-acetyl-9-(4-chlorophenylamino)-7-methyl-6,7,8,9-tetrahydro-2H-[1,4]oxazino[2,3-g]quinolin-3-(4H)-one]
[1]
  activity at 10 µM: 103%
